Structures are written as SMILES.
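Further: ALL cell lines in 384-well plates, five doses spanning 10,000-fold, each plate scaled between vehicle and 100 µmol/L benzalkonium chloride controls, sDSS an adapted area-under-curve metric.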

One assay has as its system COG-LL-355h. The experiment in a line: selective drug sensitivity score (sDSS, relative to normal bone marrow) (sDSS (score)); higher = more potent and effective on the cell line relative to normal bone marrow cells. The following applies: 72 h.
Turning to `O=C1c2c(O)ccc(O)c2C(=O)c2c(NCCNCCO)ccc(NCCNCCO)c21` [Mitoxantrone] (top concentration 1000 nM), the “selective drug sensitivity score” value turned out to be 7.94.

In the case of `Nc1ncnc2c1c(COc1cccc(Cl)c1)nn2C1CCOCC1` (top concentration 10000 nM), the “selective drug sensitivity score” value was found to be 2.06.

Consider `CC1(C)CNc2cc(NC(=O)c3cccnc3NCc3ccncc3)ccc21` [Motesanib] (top concentration 10000 nM), for which the “selective drug sensitivity score” value is -0.22.

With `NC(=O)c1cccc(-c2cccc(OC(=O)NC3CCCCC3)c2)c1` [URB597] (top concentration 1000 nM), the “selective drug sensitivity score” value is -0.06.

Consider `CCCN(CCC)C(=O)C1=Cc2ccc(-c3ccc(C(=O)N4CCCC4)cc3)cc2N=C(N)C1` [Motolimod] (top concentration 10000 nM), for which the “selective drug sensitivity score” value was -2.38.

As for `CCCOc1ccn2c(C(C)=O)cc(-c3ccccc3S(C)(=O)=O)c2c1` [GSK2801] (top concentration 10000 nM), the “selective drug sensitivity score” value is -0.36.

As for `Nc1cc(COc2c(Cl)cc(C[C@H](N)C(=O)O)cc2Cl)c2oc(-c3ccccc3)nc2c1` [JPH203] (top concentration 5000 nM), the “selective drug sensitivity score” value is 1.5.

Consider `CC/C(=C(\c1ccccc1)c1ccc(OCCN(C)C)cc1)c1ccccc1` [Tamoxifen] (top concentration 10000 nM), for which the “selective drug sensitivity score” value was found to be 1.82.

Take `NC(=S)N/N=C/c1ncccc1N` [Triapine] (top concentration 10000 nM): the “selective drug sensitivity score” value came out at 1.08.

Regarding `C=CCN(/C=C1/C(=O)O[C@H](COC)[C@@]2(C)C1=C(O)C(=O)C1=C2[C@H](OC(C)=O)C[C@]2(C)C(=O)CC[C@@H]12)CC=C` [Sonolisib] (top concentration 10000 nM), the “selective drug sensitivity score” value was 0.94.

Turning to `C[C@H]1CNCCCN1S(=O)(=O)c1cccc2cncc(F)c12` [Ripasudil] (top concentration 10000 nM), the “selective drug sensitivity score” value is -0.22.

On to `C[C@@H](Oc1cc(-c2cnn(C3CCNCC3)c2)cnc1N)c1c(Cl)ccc(F)c1Cl` [Crizotinib] (top concentration 1000 nM), for which the “selective drug sensitivity score” value amounted to 2.16.

As for `CCN(CC)CCCC(C)Nc1ccnc2cc(Cl)ccc12` (configuration not stated) [Chloroquine] (top concentration 100000 nM), the “selective drug sensitivity score” value was -0.34.

In the case of `N#CC(c1ccnc(OCc2ccc(CN3CCOCC3)cc2)n1)c1nc2ccccc2s1` (configuration not stated) [Bentamapimod] (top concentration 10000 nM), the “selective drug sensitivity score” value was 1.84.

As to `COc1cc(N2CCC(N3CCN(C)CC3)CC2)ccc1Nc1ncnc(Nc2ccccc2S(=O)(=O)C(C)C)n1` [ASP3026] (top concentration 10000 nM), the “selective drug sensitivity score” value came to 1.36.

On to `COCCOc1cnc2ccn([C@H](C)c3nnc4c(F)cc(-c5cnn(C)c5)cn34)c(=O)c2c1` [AMG-337] (top concentration 10000 nM), for which the “selective drug sensitivity score” value is -0.06.

Turning to `Cc1cnc(NC(=O)Nc2cc(Br)c(C)cc2OC[C@@H]2CNCCO2)cn1` [Rabusertib] (top concentration 1000 nM), the “selective drug sensitivity score” value was 1.96.

As for `CNC(=O)c1ccc(-c2cnc3ncc(Cc4ccc5ncccc5c4)n3n2)cc1F` [Capmatinib] (top concentration 1000 nM), the “selective drug sensitivity score” value was determined as 0.04.

With `COc1cc2/c(=N/c3ccc(Br)cc3F)nc[nH]c2cc1OCC1CCN(C)CC1` [Vandetanib] (top concentration 1000 nM), the “selective drug sensitivity score” value is -0.22.

The test system of the next assay is KASUMI-10. The description is as above. Conditions: 72 h.
Turning to `O=C1c2c(O)ccc(O)c2C(=O)c2c(NCCNCCO)ccc(NCCNCCO)c21` [Mitoxantrone] (top concentration 1000 nM), the “selective drug sensitivity score” value is 12.7.

Regarding `Nc1ncnc2c1c(COc1cccc(Cl)c1)nn2C1CCOCC1` (top concentration 10000 nM), the “selective drug sensitivity score” value was -0.64.

On to `CC1(C)CNc2cc(NC(=O)c3cccnc3NCc3ccncc3)ccc21` [Motesanib] (top concentration 10000 nM), for which the “selective drug sensitivity score” value is -0.22.

`NC(=O)c1cccc(-c2cccc(OC(=O)NC3CCCCC3)c2)c1` [URB597] (top concentration 1000 nM): the “selective drug sensitivity score” value was -0.46.

In the case of `CCCN(CCC)C(=O)C1=Cc2ccc(-c3ccc(C(=O)N4CCCC4)cc3)cc2N=C(N)C1` [Motolimod] (top concentration 10000 nM), the “selective drug sensitivity score” value is -2.28.

Turning to `CCCOc1ccn2c(C(C)=O)cc(-c3ccccc3S(C)(=O)=O)c2c1` [GSK2801] (top concentration 10000 nM), the “selective drug sensitivity score” value is -0.36.

For `Nc1cc(COc2c(Cl)cc(C[C@H](N)C(=O)O)cc2Cl)c2oc(-c3ccccc3)nc2c1` [JPH203] (top concentration 5000 nM), the “selective drug sensitivity score” value stood at 0.2.

For the compound `CC/C(=C(\c1ccccc1)c1ccc(OCCN(C)C)cc1)c1ccccc1` [Tamoxifen] (top concentration 10000 nM), the “selective drug sensitivity score” value is -3.28.

Regarding `NC(=S)N/N=C/c1ncccc1N` [Triapine] (top concentration 10000 nM), the “selective drug sensitivity score” value worked out at 6.88.

With `C=CCN(/C=C1/C(=O)O[C@H](COC)[C@@]2(C)C1=C(O)C(=O)C1=C2[C@H](OC(C)=O)C[C@]2(C)C(=O)CC[C@@H]12)CC=C` [Sonolisib] (top concentration 10000 nM), the “selective drug sensitivity score” value was -0.76.

For the compound `C[C@H]1CNCCCN1S(=O)(=O)c1cccc2cncc(F)c12` [Ripasudil] (top concentration 10000 nM), the “selective drug sensitivity score” value was -0.22.

For `C[C@@H](Oc1cc(-c2cnn(C3CCNCC3)c2)cnc1N)c1c(Cl)ccc(F)c1Cl` [Crizotinib] (top concentration 1000 nM), the “selective drug sensitivity score” value was -0.54.

With `CCN(CC)CCCC(C)Nc1ccnc2cc(Cl)ccc12` (configuration not stated) [Chloroquine] (top concentration 100000 nM), the “selective drug sensitivity score” value was -4.24.

`N#CC(c1ccnc(OCc2ccc(CN3CCOCC3)cc2)n1)c1nc2ccccc2s1` (configuration not stated) [Bentamapimod] (top concentration 10000 nM): the “selective drug sensitivity score” value is -0.46.

On to `COc1cc(N2CCC(N3CCN(C)CC3)CC2)ccc1Nc1ncnc(Nc2ccccc2S(=O)(=O)C(C)C)n1` [ASP3026] (top concentration 10000 nM), for which the “selective drug sensitivity score” value is 2.86.

As for `COCCOc1cnc2ccn([C@H](C)c3nnc4c(F)cc(-c5cnn(C)c5)cn34)c(=O)c2c1` [AMG-337] (top concentration 10000 nM), the “selective drug sensitivity score” value was -0.06.

With `Cc1cnc(NC(=O)Nc2cc(Br)c(C)cc2OC[C@@H]2CNCCO2)cn1` [Rabusertib] (top concentration 1000 nM), the “selective drug sensitivity score” value is -0.74.

For `CNC(=O)c1ccc(-c2cnc3ncc(Cc4ccc5ncccc5c4)n3n2)cc1F` [Capmatinib] (top concentration 1000 nM), the “selective drug sensitivity score” value was -0.06.

Consider `COc1cc2/c(=N/c3ccc(Br)cc3F)nc[nH]c2cc1OCC1CCN(C)CC1` [Vandetanib] (top concentration 1000 nM), for which the “selective drug sensitivity score” value was -0.22.

The next assay has as its system MHH-CALL-3. The assay is described as above. Conditions: 72 h.
As for `O=C1c2c(O)ccc(O)c2C(=O)c2c(NCCNCCO)ccc(NCCNCCO)c21` [Mitoxantrone] (top concentration 1000 nM), the “selective drug sensitivity score” value came to 14.4.

For `Nc1ncnc2c1c(COc1cccc(Cl)c1)nn2C1CCOCC1` (top concentration 10000 nM), the “selective drug sensitivity score” value was determined as 0.66.

In the case of `CC1(C)CNc2cc(NC(=O)c3cccnc3NCc3ccncc3)ccc21` [Motesanib] (top concentration 10000 nM), the “selective drug sensitivity score” value was -0.22.

As for `NC(=O)c1cccc(-c2cccc(OC(=O)NC3CCCCC3)c2)c1` [URB597] (top concentration 1000 nM), the “selective drug sensitivity score” value was -0.46.

As to `CCCN(CCC)C(=O)C1=Cc2ccc(-c3ccc(C(=O)N4CCCC4)cc3)cc2N=C(N)C1` [Motolimod] (top concentration 10000 nM), the “selective drug sensitivity score” value was -4.48.

Regarding `CCCOc1ccn2c(C(C)=O)cc(-c3ccccc3S(C)(=O)=O)c2c1` [GSK2801] (top concentration 10000 nM), the “selective drug sensitivity score” value is -0.36.

On to `Nc1cc(COc2c(Cl)cc(C[C@H](N)C(=O)O)cc2Cl)c2oc(-c3ccccc3)nc2c1` [JPH203] (top concentration 5000 nM), for which the “selective drug sensitivity score” value amounted to 0.

Take `CC/C(=C(\c1ccccc1)c1ccc(OCCN(C)C)cc1)c1ccccc1` [Tamoxifen] (top concentration 10000 nM): the “selective drug sensitivity score” value was -2.48.

With `NC(=S)N/N=C/c1ncccc1N` [Triapine] (top concentration 10000 nM), the “selective drug sensitivity score” value came to 2.08.

These data come from the supplement of paper PMC8967900.
